Reference: PubChem BioAssay (NCI)
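1) Cells in 96-well plates. 2) Compound, 48 h, 5 concentrations. 3) Linear interpolation between surrounding doses. 4) Unreached endpoint = highest concentration. TGI: total growth inhibition.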

Columns and labels:
Test in all cases: NCI tumour cell line growth inhibition, 48 h
U251 CNS = tested on: U251 CNS
SNB-75 CNS = tested on: SNB-75 CNS
OVCAR-3 ovarian = tested on: OVCAR-3 ovarian
M19-MEL melanoma = tested on: M19-MEL melanoma
UACC-62 melanoma = tested on: UACC-62 melanoma
EKVX NSCLC = tested on: EKVX NSCLC
COLO 205 colon = tested on: COLO 205 colon
SNB-19 CNS = tested on: SNB-19 CNS
NCI-H226 lung = tested on: NCI-H226 lung
RPMI-8226 leukemia = tested on: RPMI-8226 leukemia
HCT-15 colon = tested on: HCT-15 colon
HT29 colon = tested on: HT29 colon
NCI-H23 lung = tested on: NCI-H23 lung
CAKI-1 renal = tested on: CAKI-1 renal
OVCAR-5 ovarian = tested on: OVCAR-5 ovarian
BT-549 breast = tested on: BT-549 breast
MDA-MB-231 breast = tested on: MDA-MB-231 breast
RXF 393 renal = tested on: RXF 393 renal
DU-145 prostate = tested on: DU-145 prostate
IGROV1 ovarian = tested on: IGROV1 ovarian

Structure (SMILES) | TGI (U251 CNS) [µM] | TGI (SNB-75 CNS) [µM] | TGI (OVCAR-3 ovarian) [µM] | TGI (M19-MEL melanoma) [µM] | TGI (UACC-62 melanoma) [µM] | TGI (EKVX NSCLC) [µM] | TGI (COLO 205 colon) [µM] | TGI (SNB-19 CNS) [µM] | TGI (NCI-H226 lung) [µM] | TGI (RPMI-8226 leukemia) [µM] | TGI (HCT-15 colon) [µM] | TGI (HT29 colon) [µM] | TGI (NCI-H23 lung) [µM] | TGI (CAKI-1 renal) [µM] | TGI (OVCAR-5 ovarian) [µM] | TGI (BT-549 breast) [µM] | TGI (MDA-MB-231 breast) [µM] | TGI (RXF 393 renal) [µM] | TGI (DU-145 prostate) [µM] | TGI (IGROV1 ovarian) [µM]
Cc1c(/C=N/NC(=O)c2cc(Br)cc(Br)c2O)c(=O)n(-c2ccccc2)n1C | > 100 | > 100 | 95.7 | > 100 | 41.7 | > 100 | > 100 | > 100 | > 100 | > 100 | > 100 | > 100 | > 100 | 94.2 | > 100 | – | – | – | – | –
O=c1c2nn3c(=O)n(-c4ccccc4)c(=O)c3nn2c(=O)n1-c1ccccc1 | > 100 | > 100 | > 100 | – | > 100 | > 100 | > 100 | > 100 | > 100 | > 100 | > 100 | > 100 | > 100 | > 100 | > 100 | > 100 | > 100 | > 100 | > 100 | > 100
O=C1C(Cl)=C(OCCCCl)C(=O)c2c(O)ccc(O)c21 | 13.8 | 3.91 | 6.77 | – | 3.9 | 40.9 | 3.09 | 32.5 | 30.8 | 5.58 | 5.06 | 5 | 5.53 | 2.51 | 26.4 | 3.86 | 6 | 4.38 | 22.8 | 13.1
O=C(CCC(NC(=O)OCc1ccccc1)C(=O)OCc1ccccc1)Nc1ccc(OCc2ccccc2)cc1 (stereo not given) | 28 | > 31.6 | > 100 | – | > 31.6 | > 31.6 | > 31.6 | > 31.6 | > 31.6 | > 10 | 26.3 | > 31.6 | > 31.6 | > 31.6 | > 100 | > 10 | 25.6 | > 31.6 | > 31.6 | > 31.6
CC1=C(C(=O)O)N2C(=O)[C@@H](NC(=O)C(c3ccc(O)cc3)N3CSC(=S)N(C(C)C)C3)C2SC1 (stereo not given in full) | > 100 | > 100 | > 100 | > 100 | > 100 | > 100 | > 100 | > 100 | – | > 100 | > 100 | > 100 | > 100 | – | > 100 | – | – | – | – | > 100
COc1ccc2c(C)cc(N/N=C(\C)C=O)nc2c1 | 30.4 | 29.8 | 7.59 | – | 27.3 | 32.8 | 30.6 | 31.6 | 24.7 | 22.9 | 15.2 | 25 | 24.8 | 27.8 | 28.2 | 29.3 | 24 | 30.2 | 24.7 | 33.5
